Tests used:
Details in all cases: incubation time: 72 h
[1] = system: CAL-85-1; assay: normalised response (% of control), CellTox Green; higher = less cell death (100 = DMSO, 0 = benzethonium chloride kill control)
Procedure, shortened: (§1)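 CellTox Green fluorescence (485/520 nm) and, after 10 min at room temperature, CellTiter-Glo luminescence were read from breast cancer cell lines incubated 72 h in 384-well plates. Cells were seeded as 20 µl suspension onto compound at 5 concentrations in 10-fold steps over a 10,000-fold range chosen per compound. Each plate was normalised to 0.1 % DMSO (100) and a positive kill control (0). Values are normalised signals, one per concentration.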

[2] = system: CAL-148; assay: as above
Procedure, shortened: as §1

[3] = system: MDA-MB-468; assay: as above
Procedure, shortened: as §1

[4] = system: HCC1937; assay: as above
Procedure, shortened: as §1

[5] = system: HDQ-P1; assay: as above
Procedure, shortened: as §1

[6] = system: MDA-MB-231; assay: as above
Procedure, shortened: as §1

[7] = system: Hs578T; assay: as above
Procedure, shortened: as §1

[8] = system: BT-474; assay: as above
Procedure, shortened: as §1

[9] = system: HCC1143; assay: as above
Procedure, shortened: as §1

[10] = system: MDA-MB-453; assay: as above
Procedure, shortened: as §1

[11] = system: CAL-51; assay: as above
Procedure, shortened: as §1

[12] = system: MFM-223; assay: as above
Procedure, shortened: as §1

[13] = system: BT-549; assay: as above
Procedure, shortened: as §1

[14] = system: CAL-120; assay: as above
Procedure, shortened: as §1

[15] = system: HCC1599; assay: as above
Procedure, shortened: as §1

[16] = system: DU-4475; assay: as above
Procedure, shortened: as §1

[17] = system: MCF-10A; assay: as above
Procedure, shortened: as §1

[18] = system: MDA-MB-436; assay: as above
Procedure, shortened: as §1

[19] = system: CAL-85-1; assay: normalised response (% of control), CellTiter-Glo; higher = more viable cells (100 = DMSO, 0 = benzethonium chloride kill control)
Procedure, shortened: as §1

[20] = system: CAL-148; assay: as above
Procedure, shortened: as §1

[21] = system: MDA-MB-468; assay: as above
Procedure, shortened: as §1

[22] = system: HCC1937; assay: as above
Procedure, shortened: as §1

[23] = system: HDQ-P1; assay: as above
Procedure, shortened: as §1

[24] = system: MDA-MB-231; assay: as above
Procedure, shortened: as §1

[25] = system: Hs578T; assay: as above
Procedure, shortened: as §1

[26] = system: BT-474; assay: as above
Procedure, shortened: as §1

[27] = system: HCC1143; assay: as above
Procedure, shortened: as §1

[28] = system: MDA-MB-453; assay: as above
Procedure, shortened: as §1

[29] = system: CAL-51; assay: as above
Procedure, shortened: as §1

[30] = system: MFM-223; assay: as above
Procedure, shortened: as §1

[31] = system: BT-549; assay: as above
Procedure, shortened: as §1

[32] = system: CAL-120; assay: as above
Procedure, shortened: as §1

[33] = system: SK-BR-3; assay: as above
Procedure, shortened: as §1

[34] = system: HCC1599; assay: as above
Procedure, shortened: as §1

[35] = system: DU-4475; assay: as above
Procedure, shortened: as §1

[36] = system: MCF-10A; assay: as above
Procedure, shortened: as §1

[37] = system: MDA-MB-436; assay: as above
Procedure, shortened: as §1

Compound	normalised response [1] [%]	normalised response [2] [%]	normalised response [3] [%]	normalised response [4] [%]	normalised response [5] [%]	normalised response [6] [%]	normalised response [7] [%]	normalised response [8] [%]	normalised response [9] [%]	normalised response [10] [%]	normalised response [11] [%]	normalised response [12] [%]	normalised response [13] [%]	normalised response [14] [%]	normalised response [15] [%]	normalised response [16] [%]	normalised response [17] [%]	normalised response [18] [%]	normalised response [19] [%]	normalised response [20] [%]	normalised response [21] [%]	normalised response [22] [%]	normalised response [23] [%]	normalised response [24] [%]	normalised response [25] [%]	normalised response [26] [%]	normalised response [27] [%]	normalised response [28] [%]	normalised response [29] [%]	normalised response [30] [%]	normalised response [31] [%]	normalised response [32] [%]	normalised response [33] [%]	normalised response [34] [%]	normalised response [35] [%]	normalised response [36] [%]	normalised response [37] [%]
Cc1cn(-c2cc(NC(=O)c3ccc(C)c(Nc4nccc(-c5cccnc5)n4)c3)cc(C(F)(F)F)c2)cn1 [Nilotinib] (100 nM)	105	93.5	123	103	68.1	110	85.3	102	109	85.7	96.3	61.4	97.5	85.9	105	102	99.2	103	107	106	103	95.4	105	94.9	97.6	99	94.2	96.3	81.9	96	115	94.4	96.3	106	103	104	100
Cc1nc(C(=O)NCC(=O)O)c(O)c2ccc(Oc3ccccc3)cc12 [FG-4592] (100 nM)	103	95.8	114	79.8	106	112	94.9	98.2	109	103	102	92.8	105	102	90.1	105	101	97	104	108	97.1	98	98.3	111	105	101	106	101	97.4	106	106	102	112	112	103	115	98.6
CC(C)(C)NC(=O)[C@H]1CC[C@H]2[C@@H]3CC[C@H]4NC(=O)C=C[C@]4(C)[C@H]3CC[C@]12C [Finasteride] (100 nM)	100	57.3	98.8	99.7	83.5	101	107	99	93.1	103	101	85.2	102	100	104	102	95.4	94.8	98.5	108	94.9	95.7	96.6	104	105	99.2	98.9	109	87.7	104	100	114	101	97.8	104	110	107
CC(C)C[C@H](NC(=O)[C@@H](COC(C)(C)C)NC(=O)[C@H](Cc1ccc(O)cc1)NC(=O)[C@H](CO)NC(=O)[C@H](Cc1c[nH]c2ccccc12)NC(=O)[C@H](Cc1cnc[nH]1)NC(=O)[C@@H]1CCC(=O)N1)C(=O)N[C@@H](CCCNC(=N)N)C(=O)N1CCC[C@H]1C(=O)NNC(N)=O [Goserelin] (100 nM)	99.8	87.4	129	89.5	108	89.7	78.9	101	55.7	105	60.7	99.1	108	96.2	86.3	97.8	98.9	89.7	97.3	93.8	102	95.8	99.9	99	97.1	99.2	98.7	101	71	94.9	103	103	92.7	94.2	97.4	94	101
CN(Cc1cnc2nc(N)nc(N)c2n1)c1ccc(C(=O)N[C@@H](CCC(=O)O)C(=O)O)cc1 [Methotrexate] (500 nM)	98.4	102	118	112	102	84.1	87.8	102	114	106	104	101	99.2	100	102	105	96.5	105	95.6	106	101	27.3	57	111	102	101	96.4	110	95.3	105	102	81.8	108	118	105	104	91.9

— the supplement of paper PMC4862054
